For 16 compounds, EC50 results are on record in BindingDB's records for doi:10.1016/j.bmcl.2016.07.066 (Presidio Pharmaceuticals, 2016).

Assay [1] can be described thus: Inhibition of HCV genotype 3a replicons NS5A infected in human Huh7 cells by luciferase reporter gene assay. For orientation: In antiviral work, replicon cells carry a viral genome segment that copies itself.
Assay [2] in a line: Inhibition of HCV genotype 1b replicons NS5A infected in human Huh7 cells by luciferase reporter gene assay.
A short description of assay [3]: Inhibition of HCV genotype 1a replicons NS5A infected in human Huh7 cells by luciferase reporter gene assay.
Assay [4] in a line: Inhibition of HCV genotype 3a replicon NS5A.
The nature of assay [5]: Inhibition of HCV genotype 1a replicon NS5A S2204I mutant infected in human Huh7 cells.
The nature of assay [6]: Inhibition of HCV genotype 1b replicon NS5A S2204I mutant infected in human Huh7 cells.

As usually defined, the EC50 is the concentration that produces a half-maximal response. Read a low EC50 as greater potency.

Structures are written as SMILES.

On to `COC(=O)N[C@H](NC(=O)N1CCC[C@H]1c1nc2ccc(-c3ccc4cc(-c5cnc([C@@H]6CCCN6C(=O)[C@@H](NC(=O)OC)C6CCOCC6)[nH]5)ccc4c3)cc2[nH]1)C1CCOCC1`, for which the half-maximal effective concentration (EC50) in assay [1] is 1.1 nM; in assay [2] it was 0.113 nM; in assay [3], 0.13 nM.
On the same counts, the results for `COC(=O)N[C@H](NC(=O)N1CCC[C@H]1c1nc2ccc(-c3ccc4cc(-c5cnc([C@@H]6CCCN6C(=O)[C@H](NC(=O)OC)c6ccccc6)[nH]5)ccc4c3)cc2[nH]1)C(C)C` are 0.03 nM, 0.014 nM and 0.22 nM.
On the same counts, the results for `COC(=O)N[C@H](NC(=O)N1CCC[C@H]1c1nc2ccc(-c3ccc4cc(-c5cnc([C@@H]6CCCN6C(=O)[C@@H](NC(=O)OC)[C@@H](C)OC)[nH]5)ccc4c3)cc2[nH]1)C(C)C` are 1.6 nM, 0.022 nM and 0.1 nM.
The like results for `COC(=O)N[C@H](NC(=O)N1CCC[C@H]1c1nc2ccc(-c3ccc4cc(-c5cnc([C@@H]6CCCN6C(=O)[C@@H](NC(=O)OC)[C@@H](C)OC)[nH]5)ccc4c3)cc2[nH]1)[C@@H](C)OC` were, in that order, 1.5 nM, 0.047 nM and 0.13 nM.
For `COC(=O)N[C@H](NC(=O)N1CCC[C@H]1c1nc2ccc(-c3ccc4cc(-c5cnc([C@@H]6CCCN6C(=O)[C@@H](NC(=O)OC)C(C)C)[nH]5)ccc4n3)cc2[nH]1)C(C)C`, the results for the concentration for a half-maximal effect (EC50) in assay [1], in assay [2] and in assay [3] were 1.1 nM, 0.042 nM and 0.26 nM, respectively.
On to `COC(=O)N[C@H](NC(=O)N1CCC[C@H]1c1nc2cnc(-c3ccc4cc(-c5cnc([C@@H]6CCCN6C(=O)[C@@H](NC(=O)OC)C(C)C)[nH]5)ccc4c3)cc2[nH]1)C(C)C`, for which the concentration giving a half-maximal response (EC50) stood at 15 nM in assay [1], 0.052 nM in assay [2] and 1.2 nM in assay [3].
The like results for `COC(=O)N[C@@H](NC(=O)N1CCC[C@H]1c1nc2ccc(-c3ccc4cc(-c5cnc([C@@H]6CCCN6C(=O)[C@@H](NC(=O)OC)C(C)C)[nH]5)ccc4c3)cc2[nH]1)c1ccccc1` were, in that order, 0.06 nM, 0.011 nM and 0.11 nM.
For the compound `COC(=O)N[C@H](NC(=O)N1CCC[C@H]1c1nc2ccc(-c3ccc4cc(-c5cnc([C@@H]6CCCN6C(=O)[C@@H](NC(=O)OC)C(C)C)[nH]5)ccc4c3)cc2[nH]1)C1CCOCC1`, the EC50 came to 0.86 nM in assay [1], 0.023 nM in assay [2] and 0.05 nM in assay [3].
On to `CC[C@H](C)[C@H](NC(=O)OC)NC(=O)N1CCC[C@H]1c1nc2ccc(-c3ccc4cc(-c5cnc([C@@H]6CCCN6C(=O)[C@@H](NC(=O)OC)[C@@H](C)OC)[nH]5)ccc4c3)cc2[nH]1`, for which the results for the EC50 in assay [1], in assay [2] and in assay [3] were 1 nM, 0.015 nM and 0.07 nM, respectively.
For the compound `CC[C@H](C)[C@H](NC(=O)OC)NC(=O)N1CCC[C@H]1c1nc2ccc(-c3ccc4cc(-c5cnc([C@@H]6CCCN6C(=O)[C@@H](NC(=O)OC)[C@@H](C)CC)[nH]5)ccc4c3)cc2[nH]1`, the EC50 is 2.3 nM in assay [1], 0.015 nM in assay [2] and 0.11 nM in assay [3].
In the case of `COC(=O)N[C@H](NC(=O)N1CCC[C@H]1c1ncc(-c2ccc(-c3ccc(-c4cnc([C@@H]5CCCN5C(=O)[C@@H](NC(=O)OC)C(C)C)[nH]4)cc3)cc2)[nH]1)C(C)C`, the concentration giving a half-maximal response (EC50) stood at 0.146 nM in assay [4]; 0.05 nM in assay [5]; 0.009 nM in assay [6]; 0.67 nM in assay [1]; 0.073 nM in assay [2]; 0.14 nM in assay [3].
As to `COC(=O)N[C@H](NC(=O)N1CCC[C@H]1c1nc2ccc(-c3ccc4cc(-c5cnc([C@@H]6CCCN6C(=O)[C@@H](NC(=O)OC)C(C)C)[nH]5)ccc4c3)nc2[nH]1)C(C)C`, the EC50 in assay [1] stood at 2.1 nM; in assay [2] it was 0.025 nM; in assay [3], 0.08 nM.
On the same counts, the results for `COC(=O)N[C@H](NC(=O)N1CCC[C@H]1c1nc2ccc(-c3ccc4cc(-c5cnc([C@@H]6CCCN6C(=O)[C@@H](NC(=O)OC)C6CCOCC6)[nH]5)ccc4c3)cc2[nH]1)C(C)C` are 0.89 nM, 0.03 nM and 0.08 nM.
On to `COC(=O)N[C@H](NC(=O)N1CCC[C@H]1c1nc2ccc(-c3ccc4cc(-c5cnc([C@@H]6CCCN6C(=O)[C@@H](NC(=O)OC)C6CCCC6)[nH]5)ccc4c3)cc2[nH]1)C1CCCC1`, for which the half-maximal effective concentration (EC50) in assay [1] came to 2.4 nM; in assay [2], 0.003 nM; in assay [3] it was 0.05 nM.
Turning to `CC[C@@H](C)[C@H](NC(=O)OC)NC(=O)N1CCC[C@H]1c1nc2ccc(-c3ccc4cc(-c5cnc([C@@H]6CCCN6C(=O)[C@@H](NC(=O)OC)[C@H](C)CC)[nH]5)ccc4c3)cc2[nH]1`, the figures for the concentration for a half-maximal effect (EC50) in assay [1], in assay [2] and in assay [3] were 9.5 nM, 0.009 nM and 0.6 nM, respectively.
Take `COC(=O)N[C@H](NC(=O)N1CCC[C@H]1c1nc2ncc(-c3ccc4cc(-c5cnc([C@@H]6CCCN6C(=O)[C@@H](NC(=O)OC)C(C)C)[nH]5)ccc4c3)cc2[nH]1)C(C)C`: the concentration giving a half-maximal response (EC50) worked out at 6.6 nM in assay [1], 0.026 nM in assay [2] and 0.23 nM in assay [3].
